The values below come from article PMC10453766, “Comparison of the Effects of DOTA and NOTA Chelators on ^64Cu-Cudotadipep and ^64Cu-Cunotadipep for Prostate Cancer” (Diagnostics, 2023).

Broadly, the Kd is the equilibrium constant for the complex coming apart. Low readings indicate higher affinity, high ones lower affinity. Broadly, the Ki is the dissociation constant of the complex between target and ligand, obtained from inhibition or displacement. A higher Ki goes with weaker binding. One may read the IC50 as the midpoint of a concentration-inhibition curve. The low end stands for greater potency, the high end for weaker potency.

Data set [1] has as its target T1, PSMA (Homo sapiens, UniProt Q04609).
T1 construct: host or cells: 22Rv1 human prostate cancer cells (intact cells)
The data set can be described thus: Saturation binding assay of ^125I-MIP-1095 in 22Rv1 cells. The note with it: saturation binding test. The method, then: The dissociation constant (Kd) of MIP-1095 was determined via a saturation binding assay. The saturation binding assay was performed as performed in a previous study. Briefly, the 22Rv1 cells (2 × 10^5) were aliquoted into wells in a 24-well plate and incubated with 0.7–17.5 nM (0.0037–0.1332 MBq) of ^125I-MIP-1095 at 37 °C for 1 h. To prevent nonspecific binding, 500 μM unlabeled MIP was added. Radioactivity was measured using 2480 WIZARD2 gamma counter (Perkin Elmer, Waltham, MA, USA). Statistical analysis was performed using Microsoft Excel.

Data set [2] deals with T1, PSMA. The data set can be described thus: Competitive binding assay against ^125I-MIP-1095 in 22Rv1 cells. The note with it: for Ki: 22Rv1 cells, converted from IC50 with the Cheng–Prusoff equation using Kd of MIP-1095; for IC50: cold forms, PSMA-expressing 22Rv1 cells, 1 h, 37 °C. On the procedure: The 22Rv1 cells (1 × 10^6 cells/well, 48-well plate) were washed with phosphate-buffered saline (PBS), and the culture medium was substituted with RPMI-1640 medium containing 1% bovine serum albumin. The cells were incubated for 1 h at 37 °C and 5% CO2 with unlabeled cudotadipep or cunotadipep (1.00 × 10^−4–1.00 × 10^−10 M) or 0.09–0.1 nM ^125I-(S)-2-(3-((S)-1-carboxy-5-(3-(4-iodophenyl)ureido)pentyl)ureido)pentanedioic acid (^125I-MIP-1095). The cells were washed twice in cold PBS and collected via centrifugation (2000 rpm, 5 min). Radioactivity was measured using 2480 WIZARD2 gamma counter (Perkin Elmer, Waltham, MA, USA). IC50 was calculated using Microsoft Excel and converted to Ki, using the Cheng–Prusoff equation [21].

Another data set concerns PC3-PIP (PSMA+) cells. The experiment in a line: Cell uptake in PC3-PIP cells. It is filed as cell-based, human. The note with it: as given in the abstract. The method, then: PC3-PIP or PC3-flu cells (1 × 10^6) were mixed with 3.7 MBq (100 μCi) of ^64Cu-cudotadipep or ^64Cu-cunotadipep and incubated at 37 °C and 5% CO2 for 2 h. Following incubation, the cells were washed with PBS twice and collected via centrifugation (2000 rpm, 5 min). Radioactivity was measured using 2480 WIZARD2 gamma counter (Perkin Elmer, Waltham, MA, USA). Percent (%) uptake was calculated using the ratio between the radioactivity of the cells and treated radioactivity.

For data set [3] the following is noted: ^18F-labeled PSMA compounds; cited from earlier work.

T1 sequence (Q04609 whole entry): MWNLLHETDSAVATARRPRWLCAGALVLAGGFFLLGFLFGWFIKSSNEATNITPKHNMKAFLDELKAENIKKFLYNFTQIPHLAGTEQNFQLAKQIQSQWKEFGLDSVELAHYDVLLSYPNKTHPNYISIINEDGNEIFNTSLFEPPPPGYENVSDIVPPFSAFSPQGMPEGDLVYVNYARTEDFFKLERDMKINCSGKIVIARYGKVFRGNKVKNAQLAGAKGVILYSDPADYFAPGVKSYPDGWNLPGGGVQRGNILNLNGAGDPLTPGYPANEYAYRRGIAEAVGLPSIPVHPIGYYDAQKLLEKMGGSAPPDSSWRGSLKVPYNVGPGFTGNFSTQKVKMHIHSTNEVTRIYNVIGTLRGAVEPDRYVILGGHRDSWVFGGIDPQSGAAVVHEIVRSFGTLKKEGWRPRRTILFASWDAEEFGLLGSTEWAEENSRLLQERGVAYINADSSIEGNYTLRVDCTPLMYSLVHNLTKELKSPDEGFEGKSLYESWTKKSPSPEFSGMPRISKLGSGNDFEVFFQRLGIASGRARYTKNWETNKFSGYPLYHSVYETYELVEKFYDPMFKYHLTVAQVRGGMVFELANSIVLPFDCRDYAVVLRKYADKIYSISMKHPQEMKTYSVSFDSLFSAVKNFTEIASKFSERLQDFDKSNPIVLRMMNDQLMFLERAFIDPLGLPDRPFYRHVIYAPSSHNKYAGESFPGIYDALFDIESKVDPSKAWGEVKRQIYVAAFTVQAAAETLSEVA

At PSMA [1], `O=C(O)CC[C@H](NC(=O)N[C@@H](CCCCNC(=O)Nc1ccc(I)cc1)C(=O)O)C(=O)O` [MIP-1095, ^125I-(S)-2-(3-((S)-1-carboxy-5-(3-(4-iodophenyl)ureido)pentyl)ureido)pentanedioic acid] gave a Bmax of 0.25 nM and a Kd of 0.13 nM.

On PSMA [2], `O=C([O-])CN1CCN(CC(=O)[O-])CCN(CC(=O)N[C@@H](CCCCNC(=O)CCCc2ccc(I)cc2)C(=O)NCCOCCOCC(=O)N(CCCC[C@H](NC(=O)N[C@@H](CCC(=O)O)C(=O)O)C(=O)O)CC(=O)O)CC1.[Cu+2]` [Cu-cunotadipep] showed a Ki of 2.17 ± 0.25 nM and an IC50 of 5.42 ± 0.64 nM. The same compound came in with a cellular uptake in the data set with PC3-PIP (PSMA+) cells of 6.02 ± 0.05 %/1 × 10^6 cells.

As for `O=C(O)CC[C@H](NP(=O)(O)OCCC[C@H](NC(=O)CC[C@H](NC(=O)CCCCCNC(=O)c1ccc([18F])cc1)C(=O)O)C(=O)O)C(=O)O` [^18F-CTT1057], the effective dose in data set [3] was 2.28 × 10^−2 mSv/MBq.

On to `O=C([O-])CN1CCN(CC(=O)[O-])CCN(CC(=O)N[C@@H](CCCCNC(=O)CCCc2ccc(I)cc2)C(=O)NCCOCCOCC(=O)N(CCCC[C@H](NC(=O)N[C@@H](CCC(=O)O)C(=O)O)C(=O)O)CC(=O)O)CCN(CC(=O)[O-])CC1.[Cu+2]` [Cu-cudotadipep], for which, at PSMA [2], the affinity corresponds to a Ki of 6.75 ± 0.42 nM and the IC50 worked out at 16.8 ± 1.05 nM. For the same compound, the cellular uptake in the data set on PC3-PIP (PSMA+) cells was found to be 2.93 ± 0.06 %/1 × 10^6 cells.

`O=C(O)CC[C@H](NC(=O)N[C@@H](CCCCNC(=O)c1ccc([18F])nc1)C(=O)O)C(=O)O` [^18F-DCFPyL]: the effective dose in data set [3] is 1.65 × 10^−2 mSv/MBq.

In the case of `O=C([O-])CN(CCN(CC(=O)[O-])Cc1cc(CCC(=O)NCCCCCC(=O)NCCCC[C@H](NC(=O)N[C@@H](CCC(=O)O)C(=O)O)C(=O)O)ccc1O)Cc1cc(CCC(=O)O)ccc1O.[18F-].[Al+3]` [^18F-PSMA-11], the effective dose in data set [3] is 1.28 × 10^−2 mSv/MBq.

As to `O=C(O)CC[C@H](NC(=O)N[C@@H](CCCCNC(=O)[C@H](Cc1ccc2ccccc2c1)NC(=O)c1ccc(CNC(=O)[C@H](CCC(=O)O)NC(=O)[C@H](CCC(=O)O)NC(=O)c2ccc([18F])nc2)cc1)C(=O)O)C(=O)O` [^18F-PSMA-1007], the effective dose in data set [3] was 2.20 × 10^−2 mSv/MBq.
